In patent publication US20260055120A1, “Bicyclic pyrimidinones as inhibitors of NOX4” (Boehringer Ingelheim International GmbH, priority 2024, published 2026) one finds IC50 data, which are given here for two compounds.

Assay [1] deals with human NOX4 (hNOX4) (Homo sapiens (Human), UniProt Q9NPH5). The assay can be described thus: NOX4 inhibition assay (HyPerBlu). It is filed as cell-based. To be noted: HEK293 cells overexpressing hNOX4, HyPerBlu.
Procedure: NOX4 inhibition is assessed utilizing HEK293 cells stably overexpressing human NOX4 (hNOX4), generating constitutively high levels of hydrogen peroxide (H2O2). Cells are cultured in the Dulbecco's Modified Eagle Medium (DMEM) media containing 4.5 g/L glucose supplemented with 10% fetal calf serum and 250 μg/ml Zeocin in an incubator at 37° C. with 5% CO2. For the assay, cells are seeded in 384 well plates. […] After incubation Lumigen HyPerBlu™ is added and cells are incubated for additional 30 min at 24° C. in a humidified incubator. Next, luminescence is measured using an Envision Multimode Plate reader to determine levels of produced H2O2 in the wells.
Assay [2] has as its target NOX4 (Homo sapiens (Human), UniProt Q9NPH5). The conditions noted are these: modified human embryonic kidney (HEK) cells, Amplex Red as detecting reagent; read-out: NOX4 IC50 as disclosed in WO2016207785; cited from earlier work.

SMILES strings stand for the structures.

Sequence of human NOX4 (hNOX4) (Q9NPH5 whole entry): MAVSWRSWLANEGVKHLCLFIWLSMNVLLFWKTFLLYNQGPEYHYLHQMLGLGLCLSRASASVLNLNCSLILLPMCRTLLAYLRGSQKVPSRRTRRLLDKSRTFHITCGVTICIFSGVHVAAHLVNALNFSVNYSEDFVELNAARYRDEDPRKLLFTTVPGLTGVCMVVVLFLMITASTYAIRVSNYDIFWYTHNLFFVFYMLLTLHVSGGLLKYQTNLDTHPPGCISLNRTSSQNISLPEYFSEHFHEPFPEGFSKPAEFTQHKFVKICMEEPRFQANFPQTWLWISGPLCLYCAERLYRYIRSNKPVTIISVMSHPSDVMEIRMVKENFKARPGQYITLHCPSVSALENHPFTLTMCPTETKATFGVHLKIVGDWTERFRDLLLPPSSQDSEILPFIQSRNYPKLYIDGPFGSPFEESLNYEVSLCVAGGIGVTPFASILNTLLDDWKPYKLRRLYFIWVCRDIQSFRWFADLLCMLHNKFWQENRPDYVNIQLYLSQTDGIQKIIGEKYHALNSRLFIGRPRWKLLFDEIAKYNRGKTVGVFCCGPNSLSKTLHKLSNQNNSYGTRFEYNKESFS
Sequence of human NOX4 (hNOX4) (P13498 2-195 partner): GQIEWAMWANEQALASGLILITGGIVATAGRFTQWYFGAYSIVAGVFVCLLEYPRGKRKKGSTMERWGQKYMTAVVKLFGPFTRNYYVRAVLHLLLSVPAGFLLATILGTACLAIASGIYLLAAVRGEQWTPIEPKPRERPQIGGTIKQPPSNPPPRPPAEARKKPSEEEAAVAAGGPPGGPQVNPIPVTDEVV
Sequence of NOX4 (Q9NPH5 whole entry, species assumed): as the sequence (Q9NPH5 whole entry) above
Sequence of NOX4 (P13498 2-195 partner, species assumed): as the sequence (P13498 2-195 partner) above

Take `O=c1c2ncccc2nc(SCc2ccccc2F)n1-c1ccc(Cl)cc1` [WO2005049613 example 59]: in assay [1], the IC50 (commonly the concentration that gives 50% inhibition) stood at 79 µM.
With `O=C(Nc1ccc2oc(N3CCC34COC4)nc2c1)c1ccc2c(c1)CCO2` [WO2016207785 example 15], the IC50 in assay [2] is 0.4 µM.
